We go through four molecules from patent publication US20260317319A1, “NOVEL ERGOLINES AND METHODS OF TREATING MOOD DISORDERS” (Gilgamesh Pharma Inc., priority 2023, published 2026).

Read-outs that look alike come from different tables or passages of the source.

In data set [1] the target is T1, 5-HT2A receptor (Homo sapiens, UniProt P28223). The experiment in a line: cell-based. The format is cell-based. Particulars: agonist, beta-arrestin recruitment; for EC50: PathHunter, read-out: 5-HT2A Arrestin EC50; for Emax: read-out: 5-HT2A Arrestin % Act @ Max Dose. The method in brief: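 Agonist activity expressed as percent of maximal control ligand signal after vehicle subtraction, from chemiluminescence (RLU). Cells carry ProLink-tagged 5-HT2A plus β-arrestin fused to β-gal deletion mutant; ligand-driven arrestin binding restores β-galactosidase activity (PathHunter). Cells pre-incubated at 37° C.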
T1 sequence (P28223 whole entry, the tested form may be a part): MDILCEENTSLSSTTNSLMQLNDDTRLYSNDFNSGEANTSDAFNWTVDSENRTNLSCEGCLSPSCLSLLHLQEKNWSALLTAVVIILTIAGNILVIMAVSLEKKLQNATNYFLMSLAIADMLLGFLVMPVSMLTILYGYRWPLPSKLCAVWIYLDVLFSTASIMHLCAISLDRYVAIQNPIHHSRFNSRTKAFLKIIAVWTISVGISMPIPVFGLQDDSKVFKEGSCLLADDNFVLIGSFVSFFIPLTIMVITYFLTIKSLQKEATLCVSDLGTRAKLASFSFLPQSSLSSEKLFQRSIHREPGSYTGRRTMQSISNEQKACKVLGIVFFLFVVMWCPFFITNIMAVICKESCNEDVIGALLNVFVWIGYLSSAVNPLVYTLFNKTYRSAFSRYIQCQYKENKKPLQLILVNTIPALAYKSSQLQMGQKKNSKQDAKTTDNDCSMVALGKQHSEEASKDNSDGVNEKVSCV
(In general: Activated receptors often draw arrestin, which recruitment assays turn into a signal.)

The target in data set [2] is T2, 5-HT2B receptor (Homo sapiens, UniProt P41595).
T2 construct: expressed in transfected cells; host or cells: HEK293, stably transfected
T2 sequence (P41595 whole entry): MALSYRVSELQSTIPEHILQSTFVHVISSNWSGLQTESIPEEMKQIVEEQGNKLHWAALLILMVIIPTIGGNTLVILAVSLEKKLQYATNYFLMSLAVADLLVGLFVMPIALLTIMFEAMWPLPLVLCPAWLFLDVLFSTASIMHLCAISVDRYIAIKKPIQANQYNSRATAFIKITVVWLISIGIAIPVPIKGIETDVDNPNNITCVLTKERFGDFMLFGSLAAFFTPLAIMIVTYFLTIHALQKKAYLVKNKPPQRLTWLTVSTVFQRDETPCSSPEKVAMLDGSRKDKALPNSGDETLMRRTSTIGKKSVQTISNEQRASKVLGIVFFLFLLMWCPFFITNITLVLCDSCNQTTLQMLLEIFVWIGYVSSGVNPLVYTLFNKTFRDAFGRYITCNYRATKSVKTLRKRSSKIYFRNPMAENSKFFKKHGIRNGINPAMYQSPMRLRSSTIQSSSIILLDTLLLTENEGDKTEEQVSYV
As to the kind of experiment: 5-HT2B receptor radioligand binding ([3H]LSD). Conditions: read-out: 5-HT2B Receptor Ki.

Data set [3] has as its target T1, 5-HT2A receptor. As to the kind of experiment: biochemical. The format is binding. More on the design: expressed in transfected cells; host or cells: HEK293, stably transfected. Conditions: for Ki: [3H]ketanserin 1 nM, HEK293 stable cell line, 1 h, 25 °C. An outline of the steps: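 Test compounds competed with [^3H]ketanserin for receptor binding, and affinity was derived from the radioligand displacement.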

The next data set has as its target T3, 5-HT2C receptor (Homo sapiens, UniProt P28335).
T3 sequence (P28335 33-458): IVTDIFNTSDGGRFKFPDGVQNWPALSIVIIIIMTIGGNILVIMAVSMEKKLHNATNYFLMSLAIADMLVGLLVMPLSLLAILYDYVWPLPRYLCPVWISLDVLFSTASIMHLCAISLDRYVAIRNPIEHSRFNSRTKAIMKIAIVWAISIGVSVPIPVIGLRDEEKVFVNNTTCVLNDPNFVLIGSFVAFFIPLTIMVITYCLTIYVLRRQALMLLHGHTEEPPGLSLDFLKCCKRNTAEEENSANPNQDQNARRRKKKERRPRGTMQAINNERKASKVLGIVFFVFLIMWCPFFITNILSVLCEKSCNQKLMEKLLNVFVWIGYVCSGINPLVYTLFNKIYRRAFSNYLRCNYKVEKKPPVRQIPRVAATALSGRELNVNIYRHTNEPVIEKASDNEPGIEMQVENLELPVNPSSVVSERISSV
The experiment in a line: cell-based. Particulars: agonist, Ca2+ flux, Eurofins DiscoverX protocol; for Emax: max dose, read-out: 5-HT2C % Act @ Max Dose; for EC50: read-out: 5-HT2C EC50.

In another data set the target is T4, 5-HT1B receptor (Homo sapiens, UniProt P28222).
T4 construct: expressed in transfected cells
T4 sequence (P28222 whole entry): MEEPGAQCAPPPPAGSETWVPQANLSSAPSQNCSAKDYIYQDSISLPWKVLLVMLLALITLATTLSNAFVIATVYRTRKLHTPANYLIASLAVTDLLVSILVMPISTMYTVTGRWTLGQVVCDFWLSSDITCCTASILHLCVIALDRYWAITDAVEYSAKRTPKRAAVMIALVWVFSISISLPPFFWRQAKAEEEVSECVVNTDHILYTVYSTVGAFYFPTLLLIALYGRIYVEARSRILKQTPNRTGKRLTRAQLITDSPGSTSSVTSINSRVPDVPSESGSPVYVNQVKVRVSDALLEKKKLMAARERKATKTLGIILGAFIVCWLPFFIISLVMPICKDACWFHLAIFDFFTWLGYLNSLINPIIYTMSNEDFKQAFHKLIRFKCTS
The experiment in a line: cAMP accumulation functional assay at 5-HT1B. The format is cell-based. Conditions: agonist, cAMP accumulation; for Emax: read-out: 5-HT1B % Act @ Max Dose. An outline of the steps: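 Stably transfected human 5-HT1B cells were incubated 60 min at room temperature, after which detection reagent was applied for another 60 min at RT. The read-out was cAMP accumulation, used as a measure of agonist activity.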
(Cyclic AMP is a second messenger, typically raised through Gs and lowered through Gi signalling.)

The target of a further data set is T5, 5-HT1A receptor (Homo sapiens, UniProt P08908).
T5 construct: expressed in transfected cells; host or cells: CHO cells, stably transfected
T5 sequence (P08908 1-422): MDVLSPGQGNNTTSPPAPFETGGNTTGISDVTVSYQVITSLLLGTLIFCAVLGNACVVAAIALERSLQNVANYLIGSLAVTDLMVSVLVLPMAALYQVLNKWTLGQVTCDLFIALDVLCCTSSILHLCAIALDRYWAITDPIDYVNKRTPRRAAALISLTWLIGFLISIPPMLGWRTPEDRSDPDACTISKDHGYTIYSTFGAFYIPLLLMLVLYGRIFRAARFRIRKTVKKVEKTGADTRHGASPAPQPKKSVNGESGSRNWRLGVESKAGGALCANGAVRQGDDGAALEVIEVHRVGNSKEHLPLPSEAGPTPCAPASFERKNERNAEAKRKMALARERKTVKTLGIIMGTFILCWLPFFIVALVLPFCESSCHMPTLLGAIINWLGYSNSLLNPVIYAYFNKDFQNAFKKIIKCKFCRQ
As to the kind of experiment: cell-based. Conditions: agonist, Ca2+ flux; for Emax: CHO, CHO cells with Gα15, max dose, read-out: 5-HT1A % Act @ Max Dose. The method in brief:
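Receptor agonism was assessed as intracellular calcium mobilization in stably transfected cells, with CHO cells additionally carrying Gα15 for the 5-HT1A readout. Calcium was monitored with Fluo-4 Direct dye.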
(In general: A change in cytosolic calcium serves as a functional read-out for many receptors and channels.)

Data set [4] has as its target T1, 5-HT2A receptor. As to the kind of experiment: cell-based. The format is cell-based. More on the design: expressed in transfected cells; host or cells: HEK293, stably transfected. Conditions: for Emax: HEK293, agonist, read-out: 5-HT2A % Act @ Max Dose; for EC50: HEK293. The method in brief:
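Stable HEK293 (5-HT2A, 5-HT2B) or CHO/Gα15 (5-HT1A) cells; Fluo-4 Direct, probenecid 2.5 mM final; 50 min dye load, 37 °C, 5% CO2; agonist-mode Ca2+ flux, FLIPR Tetra.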

Data set [5] concerns the target T2, 5-HT2B receptor. As to the kind of experiment: cell-based. Format: cell-based. Particulars: Ca2+ flux; for Emax: HEK293, agonist, read-out: 5-HT2B % Act @ Max Dose; for EC50: HEK293. An outline of the steps:
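FLIPR Tetra fluorescence read-out of calcium flux after compound addition. Receptor-expressing stable lines were used (HEK293 for 2A/2B; CHO with Gα15 for 1A), dye-loaded with Fluo-4 Direct and 2.5 mM final probenecid, 50 min at 37 °C.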

Data set [6] can be described thus: in vitro. The format is in vitro ADME, human. Particulars: HLM 0.50 mg/mL, NADPH 1 mM, 1 μM compound, pH 7.4, 37° C., 60 min.
The nature of data set [7]: in vitro. Particulars: MLM (male CD-1) 0.50 mg/mL, NADPH 1 mM, 1 μM compound, pH 7.4, 37° C., 60 min. Format: in vitro ADME, mouse. The source says: MLM Stability Pooled MLM from male CD-1 mice (BIOIVT M00501) were used.
For a further data set, the system named is C57BL/6 mice. The experiment in a line: Automated mouse head twitch response (HTR) assay (video tracking). The format is in vivo. Particulars: sc. As for the experimental part:
Disclosed compounds were tested for their ability to induce a head twitch response (HTR) in mice using an automated video tracking procedure, with the results summarized in Table 8 and FIG. 4.
Animals. Adult male C57BL/6 mice aged 8-10 weeks (Jackson Labs, Bar Harbor, ME; body weight 18-25 g) were used in this experiment. Animals were group housed under environmentally controlled temperatures and 12-hour light/dark cycles (lights on between 06:00-18:00 h), with ad libitum food and water. Mice were habituated to the facility for at least 5 days prior to testing. All animal procedures were approved by the local IACUC and conducted in accordance with the NIH Guide for the Care and Use of Laboratory Animals.
Procedure. Mice were administered one dose of the drug and immediately placed into a small open field for behavioral observation. High-speed video of animals' behavior was captured continuously for 20 min. Video recordings were imported into an image processing software, which detects multiple points of interest on each animal's body, including the left and right ear. HTR events were defined as periodic deviations of ear locations from temporally averaged ear locations. Predefined thresholds for magnitude and frequency of location deviations were used to filter HTR events from random head movements. The method was validated by comparing detected events with manual (human) observations and found to have an accuracy >95%. The total number of HTR events counted during the 20-min recording and the rate in HTR/min calculated over 2-min bins were determined for each animal at each dose.
Statistical Analysis. The data points shown are the mean±standard error of the mean (SEM).

The nature of data set [8]: in vitro. Format: in vitro ADME, rat. Particulars: RLM (male Sprague-Dawley) 0.50 mg/mL, NADPH 1 mM, 1 μM compound, pH 7.4, 37° C., 60 min. The source says:
RLM Stability Pooled RLM from male Sprague-Dawley rats (Xenotech R1000) were used.

By EC50 is commonly meant the concentration giving half of the maximal effect. One may read the Ki as a dissociation constant, usually derived from enzyme kinetics or from competition with a known ligand. As to `CCN(CC)C(=O)[C@@H]1C=C2c3cccc4[nH]c(Br)c(c34)C[C@H]2N(CCC(F)(F)F)C1` [Compound 42, (6aR,9R)-5-bromo-N,N-diethyl-7-(3,3,3-trifluoropropyl)-4,6,6a,7,8,9-hexahydroindolo[4,3-fg]quinoline-9-carboxamide], the EC50 is 16 nM at 5-HT2A receptor [1] and greater than 10000 nM at 5-HT2C receptor. In addition, the Emax on 5-HT2A receptor [1] (max dose) amounted to 49.4%; on 5-HT2C receptor it was 17.9%; at 5-HT1B receptor (max dose), 33.1%; at 5-HT1A receptor, 9.13%; at 5-HT2A receptor [4] (Ca2+ flux, HEK293, max dose), 8.29%; at 5-HT2B receptor [5] (HEK293, max dose), 2.58%. The inhibitory constant (Ki) at 5-HT2B receptor [2] came to 238 nM. Also, the “potency in receptor binding” value on 5-HT2A receptor [3] (radioligand binding, 5-HT2A) is recorded as “potent binding to 5-HT2A”. Besides, on 5-HT2A receptor [4] (functional assays at 5-HT2A, 2B, 2C, 1A, 1B), the “agonist activity at any of the serotonin receptors tested” value is reported as “no agonist activity at any of the receptors tested”.
Regarding `CCC[C@@H](C)NC(=O)[C@@H]1C=C2c3cccc4[nH]c(Br)c(c34)C[C@H]2N(C)C1` [Compound 45, (6aR,9R)-5-bromo-N—((R)-pentan-2-yl)-7-methyl-4,6,6a,7,8,9-hexahydroindolo[4,3-fg]quinoline-9-carboxamide], the concentration for a half-maximal effect (EC50) on 5-HT2A receptor [1] is 4.28 nM; at 5-HT2C receptor it was greater than 10000 nM. Also, the Emax was 45.3% on 5-HT2A receptor [1] (max dose); 22.1% at 5-HT2C receptor; 87.1% on 5-HT1B receptor (max dose); 12.5% at 5-HT1A receptor; 22.3% at 5-HT2A receptor [4] (Ca2+ flux, HEK293, max dose); -0.31% at 5-HT2B receptor [5] (HEK293, max dose). The Ki on 5-HT2B receptor [2] came to 3.65 nM.
As for `CCN(CC)C(=O)[C@@H]1C=C2c3cccc4[nH]cc(c34)C[C@H]2NC1` [Compound 83], the EC50 turned out to be 2.71 nM on 5-HT2A receptor [1]; 27.4 nM at 5-HT1B receptor; 1.7 nM at 5-HT2A receptor [4] (agonist, Ca2+ flux); 22.5 nM on 5-HT2B receptor [5] (agonist). At 5-HT2A receptor [1] (max dose), the “5-HT2A Arrestin % Act @ Max Dose” value is given as 88.78%. Moreover, the “Intrinsic clearance (Clint)” value in the data set “in vitro [6]” is less than 9.6 µL/min/mg; in “in vitro [7]” it was 12.6 µL/min/mg; in “in vitro [8]”, 15.3 µL/min/mg. In addition, the “half-life (t1/2)” value in the data set “in vitro [6]” is given as greater than 145 min; in “in vitro [7]” it was 110.1 min; in the data set “in vitro [8]”, 90.5 min. The inhibition constant (Ki) on 5-HT2B receptor [2] ([3H]LSD 2 nM, HEK293 stable cell line, 1 h, 25 °C) stood at 115 nM; at 5-HT2A receptor [3], 5.65 nM. On 5-HT1B receptor (max dose), the “5-HT1B % Act @ Max Dose” value is given as 88.07%. Also, the “5-HT2A % Act @ Max Dose” value at 5-HT2A receptor [4] (agonist, Ca2+ flux, HEK293, max dose) was found to be 107.11%. Besides, on 5-HT2B receptor [5] (agonist, HEK293, max dose), the “5-HT2B % Act @ Max Dose” value is 69.27%. For the same molecule, in the data set with C57BL/6 mice (20 min recording, mean, at each compound's most efficacious dose (35*, 43*, 44*: suppressed below vehicle 14.5, dose is that of least suppression)), the “# HTR/20 min at Most Efficacious Dose” value is 29.625 HTR/20 min. Moreover, the “Most Efficacious Dose for Peak HTR/min” value in the data set on C57BL/6 mice (dose giving highest peak HTR/min (35*, 43*, 44*: dose that resulted in the least suppression)) is “(10) mg/kg, sc”. Further, the “Most Efficacious Dose for # HTR/20 min” value with C57BL/6 mice (dose giving most HTR/20 min (35*, 43*, 44*: dose that resulted in the least suppression)) is given as “(3.2) mg/kg, sc”. In addition, in the data set on C57BL/6 mice (rate over 2-min bins, mean, at each compound's most efficacious dose (35*, 43*, 44*: suppressed below vehicle 1.62, dose is that of least suppression)), the “Peak HTR/min at Most Efficacious Dose” value stood at 3.625 HTR/min.
For `CCN(CC)C(=O)[C@@H]1C=C2c3cccc4[nH]cc(c34)C[C@H]2N(CC2CCCC2)C1` [Compound 90, (6aR,9R)-7-(cyclopentylmethyl)-N,N-diethyl-4,6,6a,7,8,9-hexahydroindolo[4,3-fg]quinoline-9-carboxamide], the microsomal CLint stood at 140 µL/min/mg in “in vitro [6]” (human, microsomes, read-out: Intrinsic clearance (Clint)); 649 µL/min/mg in “in vitro [7]” (mouse, microsomes, read-out: Intrinsic clearance (Clint)); 370 µL/min/mg in “in vitro [8]” (rat, microsomes, read-out: Intrinsic clearance (Clint)). In addition, the half-life in “in vitro [6]” (human, microsomes, read-out: half-life (t1/2)) turned out to be 9.9 min; in the data set “in vitro [7]” (mouse, microsomes, read-out: half-life (t1/2)) it was 2.1 min; in the data set “in vitro [8]” (rat, microsomes, read-out: half-life (t1/2)), 3.7 min. Also, the Ki on 5-HT2B receptor [2] was found to be 2.08 nM; at 5-HT2A receptor [3], 2.35 nM. In addition, the Emax on 5-HT1A receptor turned out to be 76.8%; on 5-HT2A receptor [4] (Ca2+ flux, HEK293, max dose) it was 55.8%; at 5-HT2B receptor [5] (HEK293, max dose) it was 12%. The EC50 on 5-HT1A receptor (CHO cells with Gα15) was 42600 nM; on 5-HT2A receptor [4] (agonist, Ca2+ flux), 642 nM; on 5-HT2B receptor [5] (agonist) it was greater than 10000 nM.
